The text below walks through data of PMC9608620, “Synthesis and Identification of New N,N-Disubstituted Thiourea, and Thiazolidinone Scaffolds Based on Quinolone Moiety as Urease Inhibitor” (Molecules, 2022).

Values after ≈ are worked out from the molar mass of the structure shown. Read-outs that look alike come from different tables or passages of the source.

For data set [1], the system named is Proteus mirabilis (P. mirabilis) strain. The data set can be described thus: Antibacterial screening, cup-plate diffusion method. It is filed as cell-based. The settings on record: urease-positive clinical isolate from urine, number in brackets, read-out: MIC P. mirabilis (given in brackets). The method, then:
The Proteus mirabilis (P. mirabilis) strain was isolated from the urine of patients suffering from urinary tract infections. […] The test was performed using the cup-plate diffusion method

Data set [2] addresses T1, urease (Jack bean urease) (Canavalia ensiformis, UniProt P07374). The data set can be described thus: biochemical. Format: biochemical. As for the experimental part:
In vitro screening and inhibitory studies on urease (Jack bean urease) were determined using the colored Berthelot phenols method, which measures the liberation of ammonia from the reaction. Briefly, the assay mixture containing 1 unit of the enzyme was added to 650 µL of buffer solution (50 mmol phosphate buffer Ph 6.7, 400 mmol sodium salicylate, 10 mmol sodium nitroprusside, and 2 mmol EDTA/L) and mixed with 10 µL of different concentration 0.1–100 Mm of the tested compounds in DMF as a solvent. […] After 15 min incubation at room temperature, 10 µL of 50 mg/L urea solution was added. The mixture was incubated for 0.5 h in a water bath at 37 °C to allow the hydrolysis process.
After complete urea hydrolysis and ammonia liberation, the reaction was stopped by adding 200 µL of the hypochlorite reagent (150 mmol/L sodium hydroxide, 140 mm/L sodium hypochlorite). The liberated ammonia was allowed to complex with the hypochlorite and salicylate for 25 min at 30 °C. The absorbance was measured at 578 nm using a UV/VIS Spectrophotometer (Optizen POP, 5U4608, Daejeon, Korea), and experiments were performed in triplicate in a final volume of 1 mL. […] The percentage inhibition was calculated as the difference of absorbance values with and without the test compounds. The concentration that provokes an inhibition halfway between the minimum and maximum response of each compound (relative IC50) was determined by monitoring the inhibition effect of various concentrations of compounds in the assay.

The target in data set [3] is T1, urease (Jack bean urease). Particulars: read-out: IC50 (µM) Urease; lead compound of the design rationale; cited from earlier work.
The mark [4] stands for this setting: Jack bean urease, triplicate, relative IC50, read-out: IC50 (µM) Urease.

T1 sequence (P07374 whole entry, looked up): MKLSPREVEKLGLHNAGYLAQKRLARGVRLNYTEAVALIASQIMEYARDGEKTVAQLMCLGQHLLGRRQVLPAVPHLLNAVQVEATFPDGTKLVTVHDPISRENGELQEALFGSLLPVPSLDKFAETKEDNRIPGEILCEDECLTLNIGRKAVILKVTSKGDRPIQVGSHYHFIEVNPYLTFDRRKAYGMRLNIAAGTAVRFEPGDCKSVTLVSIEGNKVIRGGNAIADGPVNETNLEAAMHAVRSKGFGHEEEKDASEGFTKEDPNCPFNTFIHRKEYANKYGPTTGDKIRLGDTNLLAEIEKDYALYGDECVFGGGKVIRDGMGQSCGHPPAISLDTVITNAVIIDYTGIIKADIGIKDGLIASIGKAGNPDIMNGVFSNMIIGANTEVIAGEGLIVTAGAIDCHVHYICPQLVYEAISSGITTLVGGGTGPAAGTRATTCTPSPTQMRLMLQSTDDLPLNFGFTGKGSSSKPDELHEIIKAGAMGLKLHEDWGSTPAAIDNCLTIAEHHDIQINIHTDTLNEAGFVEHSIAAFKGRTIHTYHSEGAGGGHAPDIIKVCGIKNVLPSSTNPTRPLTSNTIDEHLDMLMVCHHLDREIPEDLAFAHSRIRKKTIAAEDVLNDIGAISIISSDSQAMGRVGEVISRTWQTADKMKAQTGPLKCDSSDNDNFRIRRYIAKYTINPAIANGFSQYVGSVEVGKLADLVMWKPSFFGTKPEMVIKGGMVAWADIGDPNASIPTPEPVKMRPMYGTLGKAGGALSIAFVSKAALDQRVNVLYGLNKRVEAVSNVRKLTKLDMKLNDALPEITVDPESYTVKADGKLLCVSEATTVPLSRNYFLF

For `C=CCNC(=S)NNC(=O)COc1cc(=O)[nH]c2ccccc12` [Compound 5f, N-Allyl-2-(2-((2-oxo-1,2-dihydroquinolin-4-yl)oxy)acetyl)hydrazinecarbothioamide], the melting point – broadly, the temperature, or range, at which the solid turns liquid – lay in the range of 169 to 171 °C. In addition, the MIC (as a rule, the lowest concentration found to suppress growth) in data set [1] is 100 µg/mL (≈ 301 µM). The IC50 (commonly the concentration needed to halve the response being measured) in data set [2] was 9.45 ± 0.08 µM.

`C=CCN1C(=O)/C(=C\C(=O)OC)SC1=NNC(=O)COc1cc(=O)[nH]c2ccccc12` [Compound 7j, (2E)-Methyl 2-(3-allyl-4-oxo-2-(2-(2-((2-oxo-1,2-dihydroquinolin-4-yl)oxy)acetyl)-hydrazono)thiazolidin-5-ylidene)acetate]: the melting point lay in the range of 244 to 246 °C. In data set [1], the MIC amounted to 200 µg/mL (≈ 452 µM). The molecule also came in with an IC50 in data set [2] of 51.4 ± 0.91 µM.

Molecule `CCOC(=O)/C=C1/S/C(=N\NC(=O)COc2cc(=O)[nH]c3ccc(C)cc23)N(Cc2ccccc2)C1=O` [Compound 7h, (E)-Ethyl 2-((Z)-3-benzyl-2-(2-(2-((6-methyl-2-oxo-1,2-dihydroquinolin-4-yl)oxy)acetyl)-hydrazono)-4-oxothiazolidin-5-ylidene)acetate] had a melting point of 233 to 235 °C. For the same molecule, the MIC in data set [1] was 200 µg/mL (≈ 384 µM). In data set [2], this molecule yielded an IC50 of 31.3 ± 0.36 µM.

`C=CCN1C(=O)/C(=C\C(=O)OC)S/C1=N\NC(=O)COc1cc(=O)[nH]c2ccc(C)cc12` [Compound 7f, (E)-Methyl 2-((Z)-3-allyl-2-(2-(2-((6-methyl-2-oxo-1,2-dihydroquinolin-4-yl)oxy)-acetyl)hydrazono)-4-oxothiazolidin-5-ylidene)acetate] had a melting point of 232 to 233 °C. Further, the MIC in data set [1] was 200 µg/mL (≈ 438 µM). Besides, in data set [2], half-maximal inhibition (IC50) was put at 31.58 ± 0.15 µM.

`CC(=O)NO` [Acetohydroxamic acid, reference compound]: the IC50 in data set [2] (setting [4]) was 21 ± 0.94 µM.

`CCNC(=S)NNC(=O)Cn1c(Cc2ccc(F)cc2)nc2ccccc2c1=O` [lead I, N-ethyl-2-(2-(2-(4-fluorobenzyl)-4-oxoquinazolin-3(4H)-yl)acetyl)hydrazinecarbothioamide]: the IC50 in data set [3] was 6.02 ± 0.27 µM.

For the molecule `COC(=O)/C=C1/SC(=NNC(=O)COc2cc(=O)[nH]c3ccc(C)cc23)N(Cc2ccccc2)C1=O` [Compound 7g, (2E)-Methyl 2-(3-benzyl-2-(2-(2-((6-methyl-2-oxo-1,2-dihydroquinolin-4-yl)oxy)acetyl)-hydrazono)-4-oxothiazolidin-5-ylidene)acetate], the melting point is 241 to 243 °C. The MIC in data set [1] came to 200 µg/mL (≈ 395 µM). Further, the IC50 in data set [2] amounted to 45.43 ± 0.19 µM.

Regarding `NC(N)=S` [Thiourea], the IC50 in data set [2] (setting [4]) amounted to 22.8 ± 1.31 µM.

Take `CCOC(=O)/C=C1/S/C(=N\NC(=O)COc2cc(=O)[nH]c3ccccc23)N(Cc2ccccc2)C1=O` [Compound 7l, (E)-Ethyl 2-((Z)-3-benzyl-4-oxo-2-(2-(2-((2-oxo-1,2-dihydroquinolin-4-yl)oxy)acetyl)-hydrazono)thiazolidin-5-ylidene)acetate]: the melting point lay within 249 to 251 °C. For the same molecule, the MIC in data set [1] amounted to 200 µg/mL (≈ 395 µM). In data set [2], this molecule came in with an IC50 of 37.21 ± 0.28 µM.

As for `C=CCNC(=S)NNC(=O)COc1cc(=O)[nH]c2ccc(C)cc12` [Compound 5d, N-Allyl-2-(2-((6-methyl-2-oxo-1,2-dihydroquinolin-4-yl)oxy)acetyl)hydrazine-1-carbothioamide], the melting point lay within 174 to 176 °C. Besides, the MIC in data set [1] came to 100 µg/mL (≈ 289 µM). The molecule also came in with an IC50 in data set [2] of 5.29 ± 0.36 µM.

Regarding `C=CCNC(=S)NNC(=O)COc1cc(=O)n(C)c2ccccc12` [Compound 5a, N-Allyl-2-(2-((1-methyl-2-oxo-1,2-dihydroquinolin-4-yl)oxy)acetyl)hydrazinecarbo-thioamide], the melting point fell in the range of 177 to 179 °C. Moreover, the MIC in data set [1] turned out to be 100 µg/mL (≈ 289 µM). This molecule had an IC50 in data set [2] of 2.48 ± 0.18 µM.

With `Cn1c(=O)cc(OCC(=O)NNC(=S)NCc2ccccc2)c2ccccc21` [Compound 5b, N-Benzyl-2-(2-((1-methyl-2-oxo-1,2-dihydroquinolin-4-yl)oxy)acetyl)hydrazinecarbothioamide], the melting point fell in the range of 190 to 192 °C. The MIC in data set [1] was 100 µg/mL (≈ 252 µM). This molecule also returned an IC50 in data set [2] of 2.58 ± 0.1 µM.

In the case of `C=CCN1C(=O)/C(=C\C(=O)OCC)S/C1=N\NC(=O)COc1cc(=O)[nH]c2ccccc12` [Compound 7i, (2E)-Ethyl 2-(3-allyl-4-oxo-2-(2-(2-((2-oxo-1,2-dihydroquinolin-4-yl)oxy)acetyl)hydra-zono)thiazolidin-5-ylidene)acetate], the MIC in data set [1] worked out at 200 µg/mL (≈ 438 µM). Also, in data set [2], the IC50 was determined as 42.8 ± 1.51 µM.

Take `C=CCN1C(=O)/C(=C\C(=O)OC)SC1=NNC(=O)COc1cc(=O)n(C)c2ccccc12` [Compound 7a, (2E)-Methyl 2-(3-allyl-2-(2-(2-((1-methyl-2-oxo-1,2-dihydroquinolin-4-yl)oxy)acetyl)-hydrazono)-4-oxothiazolidin-5-ylidene)acetate]: the melting point lay within 233 to 235 °C. In data set [1], the MIC came to 200 µg/mL (≈ 438 µM). Moreover, the IC50 in data set [2] was 36.28 ± 0.1 µM.

`COC(=O)/C=C1/SC(=NNC(=O)COc2cc(=O)n(C)c3ccccc23)N(c2ccccc2)C1=O` [Compound 7c, (2E)-Methyl 2-(2-(2-(2-((1-methyl-2-oxo-1,2-dihydroquinolin-4-yl)oxy)acetyl)-hydrazono)-4-oxo-3-phenylthiazolidin-5-ylidene)acetate] had a melting point of 229 to 231 °C. Moreover, in data set [1], the MIC was 200 µg/mL (≈ 406 µM). In addition, the midpoint of inhibition in data set [2], the IC50, lay at 18.8 ± 1.72 µM.

As for `CCOC(=O)/C=C1/SC(=NNC(=O)COc2cc(=O)n(C)c3ccccc23)N(c2ccccc2)C1=O` [Compound 7d, (2E)-Ethyl 2-(2-(2-(2-((1-methyl-2-oxo-1,2-dihydroquinolin-4-yl)oxy)acetyl)-hydrazono)-4-oxo-3-phenylthiazolidin-5-ylidene)acetate], the melting point is 223 to 225 °C. Also, the MIC in data set [1] was determined as 200 µg/mL (≈ 395 µM). The molecule further registered an IC50 in data set [2] of 26.8 ± 1.11 µM.

In the case of `O=C(COc1cc(=O)[nH]c2ccccc12)NNC(=S)NCc1ccccc1` [Compound 5g, N-Benzyl-2-(2-((2-oxo-1,2-dihydroquinolin-4-yl)oxy)acetyl)hydrazinecarbothioamide], the melting point was in the range of 199 to 201 °C. In data set [1], the MIC turned out to be 100 µg/mL (≈ 261 µM). For the same molecule, in data set [2], the IC50 is 11.2 ± 0.27 µM.

Take `Cc1ccc2[nH]c(=O)cc(OCC(=O)NNC(=S)NCc3ccccc3)c2c1` [Compound 5e, N-Benzyl-2-(2-((6-methyl-2-oxo-1,2-dihydroquinolin-4-yl)oxy)acetyl)hydrazinecarbothioamide]: the melting point lay in the range of 183 to 185 °C. In data set [1], the MIC worked out at 100 µg/mL (≈ 252 µM). The same molecule showed a half-maximal inhibitory concentration (IC50) in data set [2] of 5.6 ± 0.84 µM.

On to `COC(=O)/C=C1/SC(=NNC(=O)COc2cc(=O)[nH]c3ccccc23)N(Cc2ccccc2)C1=O` [Compound 7k, (2E)-Methyl 2-(3-benzyl-4-oxo-2-(2-(2-((2-oxo-1,2-dihydroquinolin-4-yl)oxy)acetyl)-hydrazono)thiazolidin-5-ylidene)acetate], for which the melting point was in the range of 251 to 253 °C. Further, the MIC in data set [1] came to 200 µg/mL (≈ 406 µM). Further, it took 49.45 ± 0.09 µM to reach half-maximal inhibition in data set [2] (IC50).

As to `C=CCN1C(=O)/C(=C\C(=O)OCC)S/C1=N\NC(=O)COc1cc(=O)[nH]c2ccc(C)cc12` [Compound 7e, (E)-Ethyl 2-((Z)-3-allyl-2-(2-(2-((6-methyl-2-oxo-1,2-dihydroquinolin-4-yl)oxy)acetyl)-hydrazono)-4-oxothiazolidin-5-ylidene)acetate], the melting point fell in the range of 239 to 241 °C. For the same molecule, the MIC in data set [1] is 200 µg/mL (≈ 425 µM). The molecule further gave an IC50 in data set [2] of 29.8 ± 1.31 µM.

`CCOC(=O)/C=C1/S/C(=N\NC(=O)COc2cc(=O)n(C)c3ccccc23)N(Cc2ccccc2)C1=O` [Compound 7b] showed a melting point of 243 to 245 °C. Besides, the MIC in data set [1] came to 200 µg/mL (≈ 384 µM). In data set [2], half-maximal inhibition (IC50) required 24 ± 0.88 µM.

For the molecule `Cn1c(=O)cc(OCC(=O)NNC(=S)Nc2ccccc2)c2ccccc21` [Compound 5c, 2-(2-((1-Methyl-2-oxo-1,2-dihydroquinolin-4-yl)oxy)acetyl)-N-phenylhydrazinecarbothioamide], the melting point lay within 161 to 163 °C. In data set [1], the MIC was 100 µg/mL (≈ 261 µM). The molecule also returned a concentration for half-maximal inhibition (IC50) in data set [2] of 1.83 ± 0.79 µM. Besides, in data set [2] (relative to the reference inhibitors), the “fold more potent than thiourea and acetohydroxamic acid (urease inhibition)” value is reported as “approximately 12 fold”.
